Data published in paper PMC11643077, “Synthesis of 1,2,4-Oxadiazin-5(6H)-One Derivatives and Their Biological Investigation as Monoamine Oxidase Inhibitors” (Molecules, 2024).

Assays:
[1] = biological target: T1, MAO-A (Homo sapiens, UniProt P21397); assay: MAO-A inhibition, recombinant human enzyme, kynuramine substrate, fluorometric end-point; assay type: biochemical; details: mean ± SD of triplicate, racemic mixtures, NI = no inhibition at 100 µM
T1 construct: purchased Merck
T1 sequence (P21397 1-527): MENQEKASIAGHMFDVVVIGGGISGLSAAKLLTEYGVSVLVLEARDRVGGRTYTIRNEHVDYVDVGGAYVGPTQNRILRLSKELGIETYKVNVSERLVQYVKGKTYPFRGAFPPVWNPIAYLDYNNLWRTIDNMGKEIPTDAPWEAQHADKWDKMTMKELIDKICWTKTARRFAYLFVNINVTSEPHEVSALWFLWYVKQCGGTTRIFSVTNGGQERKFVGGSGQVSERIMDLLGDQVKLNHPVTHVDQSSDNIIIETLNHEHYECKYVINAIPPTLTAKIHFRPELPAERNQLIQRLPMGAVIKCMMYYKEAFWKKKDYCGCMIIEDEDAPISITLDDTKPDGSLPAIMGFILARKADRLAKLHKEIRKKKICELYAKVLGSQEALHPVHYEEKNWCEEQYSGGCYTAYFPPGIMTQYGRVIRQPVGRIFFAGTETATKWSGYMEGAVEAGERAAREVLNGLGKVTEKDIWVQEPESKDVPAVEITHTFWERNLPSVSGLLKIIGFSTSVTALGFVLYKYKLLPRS
Method: (§1) The in vitro inhibition studies were carried out according to the published procedure, and the inhibition potencies were expressed as the IC50 values (Figure 2). […] A variety of C3 substituents were explored in this study, which included the phenyl, benzyl and 5-methylthiophen-2-yl moieties, while different substituents on the phenyl (e.g., CH3, OCH3, Cl, Br, F, CF3, OCF3, NO2, PhO) were considered.
(§2) The inhibition potencies of the 1,2,4-oxadiazin-5(6H)-one derivatives were determined using commercially available recombinant human MAO-A and MAO-B (Merck) according to the published procedure. Stock solutions of all compounds were prepared in DMSO and added to the enzyme reactions to yield a final concentration of 4% DMSO. […] Kynuramine was used as enzyme substrate for both MAO isoforms and was oxidized to ultimately form 4-hydroxyquinoline, which is a fluorescent metabolite. The concentrations of 4-hydroxyquinoline in the reactions were measured at end-point by fluorescence spectrometry (λex = 310 nm; λem = 400 nm). Using this approach, the rates of kynuramine oxidation by MAO were measured in the presence of different concentrations of the test inhibitors (0.003–100 µM) as well as in the absence of inhibitor. […] IC50 values were estimated from these plots and were reported as the mean ± SD of triplicate determinations.

[2] = biological target: T2, MAO-B (Homo sapiens, UniProt P27338); assay: MAO-B inhibition, recombinant human enzyme, kynuramine substrate, fluorometric end-point; assay type: biochemical; details: mean ± SD of triplicate, racemic mixtures, NI = no inhibition at 100 µM
T2 construct: purchased Merck
T2 sequence (P27338 1-520): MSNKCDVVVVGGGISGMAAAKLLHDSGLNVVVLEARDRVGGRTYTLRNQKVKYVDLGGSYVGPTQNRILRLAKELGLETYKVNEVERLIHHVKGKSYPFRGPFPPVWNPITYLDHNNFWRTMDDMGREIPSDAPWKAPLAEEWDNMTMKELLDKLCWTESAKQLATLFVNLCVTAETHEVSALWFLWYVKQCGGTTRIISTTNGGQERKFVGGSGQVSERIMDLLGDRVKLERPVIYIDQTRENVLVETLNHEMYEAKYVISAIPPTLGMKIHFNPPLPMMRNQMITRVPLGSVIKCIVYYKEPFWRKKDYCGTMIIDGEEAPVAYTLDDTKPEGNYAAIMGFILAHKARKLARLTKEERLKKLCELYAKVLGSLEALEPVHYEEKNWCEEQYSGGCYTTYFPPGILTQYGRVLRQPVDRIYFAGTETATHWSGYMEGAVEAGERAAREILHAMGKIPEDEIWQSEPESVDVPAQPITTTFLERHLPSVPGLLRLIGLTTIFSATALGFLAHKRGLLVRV
Method: as §1, §2

| Compound | IC50 [1] | IC50 [2] | melting point |
| --- | --- | --- | --- |
| O=C1NC(c2ccc(F)cc2)=NOC1Cc1nc(-c2ccc(F)cc2)no1 (stereo not shown) [Compound 7b] | > 100 µM | 14.3 ± 3.27 µM | – |
| O=C(O)CC1ON=C(c2ccc(C(F)(F)F)cc2)NC1=O (stereo not shown) [Compound 8d] | > 100 µM | > 100 µM | – |
| CCC1ON=C(c2ccc([N+](=O)[O-])cc2)NC1=O (stereo not shown) [Compound 5c, 6-Ethyl-3-(4-nitrophenyl)-4H-1,2,4-oxadiazin-5(6H)-one] | 57.9 ± 9.84 µM | 21 ± 4.09 µM | 177 to 179 °C |
| CCC1ON=C(c2ccc(OC)cc2)NC1=O (stereo not shown) [Compound 5e, 6-Ethyl-3-(4-methoxyphenyl)-4H-1,2,4-oxadiazin-5(6H)-one] | 44.1 ± 6.05 µM | 6.22 ± 0.596 µM | 139 to 141 °C |
| O=C(O)CC1ON=C(c2ccc(Oc3ccccc3)cc2)NC1=O (stereo not shown) [Compound 8b] | 12.7 ± 1.34 µM | > 100 µM | – |
| CCC1ON=C(c2ccc(C)cc2)NC1=O (stereo not shown) [Compound 5a, 6-Ethyl-3-(4-methylphenyl)-4H-1,2,4-oxadiazin-5(6H)-one] | > 100 µM | 4.28 ± 0.318 µM | – |
| O=C(O)CC1ON=C(c2ccc(OC(F)(F)F)cc2)NC1=O (stereo not shown) [Compound 8g, 2-(5-Oxo-3-(4-(trifluoromethoxy)phenyl)-5,6-dihydro-4H-1,2,4-oxadiazin-6-yl)acetic acid] | > 100 µM | > 100 µM | 208 to 211 °C |
| Cc1ccc(C2=NOC(Cc3nc(-c4ccc(C)cc4)no3)C(=O)N2)cc1 (stereo not shown) [Compound 7a] | 54.3 ± 14.3 µM | – | – |
| CCC1ON=C(c2ccc(F)cc2)NC1=O (stereo not shown) [Compound 5h, 6-Ethyl-3-(4-fluorophenyl)-4H-1,2,4-oxadiazin-5(6H)-one] | 93 ± 3.23 µM | 30.7 ± 2.02 µM | 153 to 155 °C |
| Cc1ccc(C2=NOC(CC(=O)O)C(=O)N2)cc1 (stereo not shown) [Compound 8a] | > 100 µM | – | – |
| COC(=O)CC1ON=C(c2ccccc2)NC1=O (stereo not shown) [Compound 6a] | > 100 µM | > 100 µM | – |
| CCC1ON=C(c2ccc(C)s2)NC1=O (stereo not shown) [Compound 5d, 6-Ethyl-3-(5-methylthiophen-2-yl)-4H-1,2,4-oxadiazin-5(6H)-one] | 58.1 ± 5.28 µM | 6.14 ± 0.137 µM | 151 to 153 °C |
| CCC1ON=C(c2ccccc2)NC1=O (stereo not shown) [Compound 5g, 6-Ethyl-3-phenyl-4H-1,2,4-oxadiazin-5(6H)-one] | > 100 µM | > 100 µM | – |
| Cc1ccc(C2=NOC(C)C(=O)N2)s1 (stereo not shown) [Compound 4d, 6-Methyl-3-(5-methylthiophen-2-yl)-4H-1,2,4-oxadiazin-5(6H)-one] | 46.2 ± 9.22 µM | 22.3 ± 0.94 µM | 167 to 169 °C |
| COc1ccc(C2=NOCC(=O)N2)cc1 [Compound 3e, 3-(4-Methoxyphenyl)-4H-1,2,4-oxadiazin-5(6H)-one] | 27.1 ± 3.98 µM | 37.6 ± 9.47 µM | 188 to 190 °C |
| O=C1NC(c2ccc([N+](=O)[O-])cc2)=NOC1Cc1nc(-c2ccc([N+](=O)[O-])cc2)no1 (stereo not shown) [Compound 7c] | 12.9 ± 0.014 µM | 0.371 ± 0.037 µM | – |
| COC(=O)CC1ON=C(c2ccc(C)s2)NC1=O (stereo not shown) [Compound 6d] | 40.7 ± 8.83 µM | 33.9 ± 1.44 µM | – |
| Cc1ccc(C2=NOCC(=O)N2)cc1 [Compound 3a, 3-(4-Methylphenyl)-4H-1,2,4-oxadiazin-5(6H)-one] | 36.8 ± 1.83 µM | 37.2 ± 0.071 µM | 140 to 141 °C |

| Compound | IC50 [1] | IC50 [2] | melting point |
| --- | --- | --- | --- |
| COC(=O)CC1ON=C(c2ccc(C(F)(F)F)cc2)NC1=O (stereo not shown) [Compound 6f] | > 100 µM | 22.9 ± 5.27 µM | – |
| COc1ccc2c(c1)[nH]c1c(C)nccc12 [Harmine, reference compound] | – | > 100 µM | – |
| CC1ON=C(c2ccc([N+](=O)[O-])cc2)NC1=O (stereo not shown) [Compound 4c, 6-Methyl-3-(4-nitrophenyl)-4H-1,2,4-oxadiazin-5(6H)-one] | 58.5 ± 4.17 µM | 14.6 ± 0.092 µM | 247 to 249 °C |
| O=C1CON=C(c2ccc([N+](=O)[O-])cc2)N1 [Compound 3c, 3-(4-Nitrophenyl)-4H-1,2,4-oxadiazin-5(6H)-one] | 17.3 ± 0.594 µM | 24.4 ± 2.48 µM | 248 to 250 °C |
| CCC1ON=C(Cc2ccccc2)NC1=O (stereo not shown) [Compound 5i, 3-Benzyl-6-ethyl-4H-1,2,4-oxadiazin-5(6H)-one] | > 100 µM | > 100 µM | 97 to 99 °C |
| O=C(O)CC1ON=C(c2cccc(Cl)c2)NC1=O (stereo not shown) [Compound 8f, 2-(3-(3-Chlorophenyl)-5-oxo-5,6-dihydro-4H-1,2,4-oxadiazin-6-yl)acetic acid] | > 100 µM | > 100 µM | 211 to 212 °C |
| CC1ON=C(c2ccc(Br)cc2)NC1=O (stereo not shown) [Compound 4b, 3-(4-Bromophenyl)-6-methyl-4H-1,2,4-oxadiazin-5(6H)-one] | 37.4 ± 4.18 µM | 27.1 ± 3.37 µM | – |
| COC(=O)CC1ON=C(c2ccc([N+](=O)[O-])cc2)NC1=O (stereo not shown) [Compound 6c] | > 100 µM | 52.3 ± 12.7 µM | – |
| COC(=O)CC1ON=C(c2ccccn2)NC1=O (stereo not shown) [Compound 6b] | 34.2 ± 6.15 µM | 23.6 ± 1.11 µM | – |
| O=C1CON=C(c2ccc(Br)cc2)N1 [Compound 3b, 3-(4-Bromophenyl)-4H-1,2,4-oxadiazin-5(6H)-one] | 14.2 ± 0.94 µM | 13.6 ± 6.63 µM | – |
| Cc1ccc(C2=NOC(C)C(=O)N2)cc1 (stereo not shown) [Compound 4a, 6-Methyl-3-(4-methylphenyl)-4H-1,2,4-oxadiazin-5(6H)-one] | 67 ± 0.007 µM | 24.5 ± 0.198 µM | – |
| COc1ccc(C2=NOC(C)C(=O)N2)cc1 (stereo not shown) [Compound 4e, 3-(4-Methoxyphenyl)-6-methyl-4H-1,2,4-oxadiazin-5(6H)-one] | 51.2 ± 15.1 µM | 20 ± 0.643 µM | – |
| O=C1NC(c2ccc(C(F)(F)F)cc2)=NOC1Cc1nc(-c2ccc(C(F)(F)F)cc2)no1 (stereo not shown) [Compound 7d] | > 100 µM | 46.3 ± 17.8 µM | – |
| O=C(O)CC1ON=C(c2cc(Cl)cc(Cl)c2)NC1=O (stereo not shown) [Compound 8e] | > 100 µM | 62.2 ± 15.7 µM | – |
| COc1ccc(C2=NOC(CC(=O)O)C(=O)N2)cc1 (stereo not shown) [Compound 8c] | > 100 µM | > 100 µM | – |
| COC(=O)CC1ON=C(c2ccncc2)NC1=O (stereo not shown) [Compound 6e] | > 100 µM | > 100 µM | – |
| Cc1ccc(C2=NOCC(=O)N2)s1 [Compound 3d, 3-(5-Methylthiophen-2-yl)-4H-1,2,4-oxadiazin-5(6H)-one] | 34.6 ± 5.47 µM | 16.6 ± 1.67 µM | 216 to 218 °C |
| CCC1ON=C(c2ccc(Br)cc2)NC1=O (stereo not shown) [Compound 5b, 3-(4-Bromophenyl)-6-ethyl-4H-1,2,4-oxadiazin-5(6H)-one] | 35.4 ± 1.54 µM | 5.11 ± 0.308 µM | – |
